Source: US11872225B2, “Pyruvate kinase modulators and use thereof” (Agios Pharmaceuticals, Inc., priority 2017, dated 2024)

Target: wild type PKM2 (Homo sapiens, UniProt P14618)
Experiment: PKM2 Assay (LDH/NADH-coupled, absorbance at 340 nm)
Format: biochemical
Settings: wild type PKM2 activation; 60 min preincubation at 25° C.; ADP 0.4 mM, PEP 0.11 mM; read-out: PKM2 WT AC50
Description: A compound described herein may be tested for its ability to activate PKM2. For simplicity, the activation activity of these compounds is represented as an AC50 in Table 2. In Tables 2, a compound described herein may have an AC50 of wild type PKM2.
PKM2 enzyme stock solution was diluted to prepare a 1.11× Reaction Mix (without ADP). 1 μL of test compound was first added to the wells followed by 40 μL of 1.11× Reaction Mix (without ADP) and incubated at room temperature (25° C.) for 60 min. The reaction was initiated with 10 μL ADP (0.4 mM final concentration), bringing the final Reaction Mix to 1×, and the reaction progress was measured as changes in absorbance at 340 nm wavelength at room temperature.
Test compound preparation: Test compounds were prepared at 50× final concentration in DMSO. 1 to 3 dilutions were made for 11 points (for example 50 μL of 5000 μM compound was added to 100 μL 100% DMSO to yield a 1667 μM, 50 μL of this added to 100 μL DMSO to yield 556 μM, and so forth). The compounds were added to the assay as a 1 to 50 dilution (1 μL in 50 μL) to yield a top concentration of 100 μM, decreasing 3-fold for 11 points.
Reaction Mix: PKM2 (5 ng/well, 0.1 μg/ml), ADP (0.4 mM), PEP (0.11 mM), NADH (180 μM), LDH (0.005 U/μL, Sigma #L3888), 1 mM DTT, 0.03% BSA in 1× Reaction Buffer
Reaction Buffer: 100 mM KCl, 50 mM Tris pH 7.5, 5 mM MgCl2.

Chain of wild type PKM2 (P14618 whole entry): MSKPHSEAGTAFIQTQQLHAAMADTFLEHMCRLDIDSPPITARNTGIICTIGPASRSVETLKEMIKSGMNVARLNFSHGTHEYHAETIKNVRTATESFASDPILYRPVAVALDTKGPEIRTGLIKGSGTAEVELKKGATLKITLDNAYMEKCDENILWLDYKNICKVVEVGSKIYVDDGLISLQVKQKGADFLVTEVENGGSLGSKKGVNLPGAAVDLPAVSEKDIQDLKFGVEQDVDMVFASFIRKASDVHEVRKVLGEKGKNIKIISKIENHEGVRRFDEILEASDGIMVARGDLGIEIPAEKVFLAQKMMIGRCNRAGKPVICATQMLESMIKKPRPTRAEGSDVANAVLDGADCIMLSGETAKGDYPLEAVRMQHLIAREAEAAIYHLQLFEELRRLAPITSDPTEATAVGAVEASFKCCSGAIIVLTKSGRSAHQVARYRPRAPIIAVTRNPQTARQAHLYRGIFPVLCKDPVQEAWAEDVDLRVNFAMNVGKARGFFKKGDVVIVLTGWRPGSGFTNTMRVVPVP

Row | SMILES | AC50 [nM]
1 | CC(=O)Nc1ccc(F)c(Cn2ncc3c4sc(Cc5cc[nH]n5)nc4n(C)c3c2=O)n1 [Compound 115] | < 300
2 | Cn1c2nc(Cc3c[nH]nn3)sc2c2cnn(Cc3ccccc3)c(=O)c21 [Compound 97] | > 800
3 | COC(=O)C(C(=O)OC)c1nc2c(s1)c1cnn(Cc3cccc4[nH]ncc34)c(=O)c1n2C [Compound 43] | < 300
4 | Cn1c2nc(C(O)c3ccccn3)sc2c2cnn(Cc3cccc4[nH]ncc34)c(=O)c21 (stereo not drawn) [Compound 48] | > 800
5 | C=Cc1nc2c(s1)c1cnn(Cc3cccc(OC)c3)c(=O)c1n2C [Compound 11] | < 300
6 | C=Cc1nc2c(s1)c1cnn(Cc3cccc4[nH]ncc34)c(=O)c1n2C [Compound 39] | < 300
7 | Cn1ccc(Cc2nc3c(s2)c2cnn(Cc4ccn[nH]4)c(=O)c2n3C)n1 [Compound 110] | < 300
8 | Cn1c2nc(Cc3ccccn3)sc2c2cnn(Cc3cc[nH]n3)c(=O)c21 [Compound 92] | < 300
9 | Cc1nc2c(s1)c1cnn(Cc3cccc(C(=O)O)c3)c(=O)c1n2C [Compound 5] | > 800
10 | CSc1nc2c(s1)c1cnn(Cc3ccnc(=O)[nH]3)c(=O)c1n2C [Compound 35] | > 800
11 | COc1ccccc1Cn1ncc2c3sc(C)nc3n(C)c2c1=O [Compound 3] | 301 to 800
12 | Cn1c2nc(NC(=O)Cc3cc[nH]n3)sc2c2cnn(Cc3cccc4[nH]ncc34)c(=O)c21 [Compound 64] | > 800
13 | Cn1c2nc(C(c3cccc4[nH]ncc34)S(=O)(=O)c3ccccc3)sc2c2cnn(Cc3cccc4[nH]ncc34)c(=O)c21 (stereo not drawn) [Compound 50] | > 800
14 | Cn1c2nc(Cc3cnc(O)nc3)sc2c2cnn(Cc3cccc4[nH]ncc34)c(=O)c21 [Compound 81] | > 800
15 | Cn1cc(CC(N)=O)c(Cn2ncc3c4sc(Cc5cc[nH]n5)nc4n(C)c3c2=O)n1 [Compound 125] | > 800
16 | Cn1c2nc(Cc3ccc(=O)[nH]c3)sc2c2cnn(Cc3cccc4[nH]ncc34)c(=O)c21 [Compound 60] | > 800
17 | Cn1c2nc(Nc3ccccc3)sc2c2cnn(Cc3cccc4[nH]ncc34)c(=O)c21 [Compound 52] | > 800
18 | Cn1c2nc(Cc3cc[nH]n3)sc2c2cnn(Cc3ccnc(N)n3)c(=O)c21 [Compound 134] | < 300
19 | COc1cccc(Cn2ncc3c4sc(S(=O)(=O)c5ccccc5)nc4n(C)c3c2=O)c1 [Compound 10] | < 300

Row | SMILES | AC50 [nM]
20 | Cn1c2nc([S+](C)[O-])sc2c2cnn(Cc3ccc(C#N)cc3)c(=O)c21 (stereo not drawn) [Compound 27] | 301 to 800
21 | Cn1c2nc(Cc3n[nH]cc3C(F)(F)F)sc2c2cnn(Cc3cccc4[nH]ncc34)c(=O)c21 [Compound 59] | > 800
22 | CSc1nc2c(s1)c1cnn(Cc3cn4cccnc4n3)c(=O)c1n2C [Compound 40] | > 800
23 | Cn1c2nc(Cc3ccccn3)sc2c2cnn(Cc3nccs3)c(=O)c21 [Compound 91] | < 300
24 | Cn1c2nc(Cc3cc[nH]n3)sc2c2cnn(Cc3ncsc3C(F)(F)F)c(=O)c21 [Compound 95] | > 800
25 | Cc1nc2c(s1)c1cnn(Cc3cccc4cn[nH]c34)c(=O)c1n2C [Compound 23] | 301 to 800
26 | Cn1c2nc(Cc3cc[nH]n3)sc2c2cnn(Cc3csc(C(N)=O)n3)c(=O)c21 [Compound 69] | < 300
27 | Cn1c2nc(Cc3n[nH]cc3F)sc2c2cnn(Cc3cc[nH]n3)c(=O)c21 [Compound 111] | < 300
28 | Cn1c2nc([S+](C)[O-])sc2c2cnn(Cc3cccc4c3CCNC4)c(=O)c21 (stereo not drawn) [Compound 30] | < 300
29 | Cn1c2nc(Cc3cncnc3)sc2c2cnn(Cc3cccc4[nH]ncc34)c(=O)c21 [Compound 56] | > 800
30 | CCOC(=O)Cn1ncc2c3sc(C)nc3n(C)c2c1=O [Compound 24] | > 800
31 | Cc1nc2c(s1)c1cnn(Cc3ccc4nn[nH]c4c3)c(=O)c1n2C [Compound 6] | 301 to 800
32 | Cn1c2nc(SCc3ccccc3)sc2c2cnn(Cc3cccc4[nH]ncc34)c(=O)c21 [Compound 45] | 301 to 800
33 | Cn1c2nc(Cc3cc[nH]n3)sc2c2cnn(Cc3cccc4[nH]ncc34)c(=O)c21 [Compound 31] | < 300
34 | Cc1cccc(Cn2ncc3c4sc(Cc5cc[nH]n5)nc4n(C)c3c2=O)n1 [Compound 73] | < 300
35 | Cc1nc2c(s1)c1cnn(Cc3ccc4[nH]c(=O)[nH]c4c3)c(=O)c1n2C [Compound 22] | > 800
36 | COc1ncc(Cc2nc3c(s2)c2cnn(Cc4cccc5[nH]ncc45)c(=O)c2n3C)cn1 [Compound 80] | < 300
37 | CC(=O)c1cccc(Cn2ncc3c4sc([S+](C)[O-])nc4n(C)c3c2=O)c1 (stereo not drawn) [Compound 32] | < 300

Target: PKM2 (Mus musculus, UniProt P52480)
Experiment: not given
Settings: in vivo, LPS; cited from earlier work

Chain of PKM2 (P52480 whole entry): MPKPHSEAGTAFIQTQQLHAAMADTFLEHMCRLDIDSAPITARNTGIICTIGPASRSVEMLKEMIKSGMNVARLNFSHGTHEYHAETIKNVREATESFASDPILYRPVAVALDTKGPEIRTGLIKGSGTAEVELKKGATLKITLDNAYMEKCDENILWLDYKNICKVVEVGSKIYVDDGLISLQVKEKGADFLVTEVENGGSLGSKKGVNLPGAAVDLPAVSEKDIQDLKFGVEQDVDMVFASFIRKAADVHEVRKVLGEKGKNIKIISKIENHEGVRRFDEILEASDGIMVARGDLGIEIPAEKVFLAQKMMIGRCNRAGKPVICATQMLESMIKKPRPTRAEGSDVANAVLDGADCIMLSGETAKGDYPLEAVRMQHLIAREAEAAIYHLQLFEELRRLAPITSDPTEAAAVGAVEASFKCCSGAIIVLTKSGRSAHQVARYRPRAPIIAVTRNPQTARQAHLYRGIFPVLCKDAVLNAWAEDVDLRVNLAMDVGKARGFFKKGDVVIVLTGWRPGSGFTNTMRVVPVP

Row | SMILES | IL-1β production | production of IL-10
38 | Cn1c2cc([S+](C)[O-])sc2c2cnn(Cc3cccc(N)c3)c(=O)c21 (stereo not drawn) [TEPP-46] | inhibited LPS and IL-1β production | boosting production of IL-10
